Measurements taken from article PMC9653339, “Revisiting the anticancer properties of phosphane(9-ribosylpurine-6-thiolato)gold(I) complexes and their 9H-purine precursors” (Journal of Biological Inorganic Chemistry, 2022).
Read-outs that look alike come from different tables or passages of the source.

What was measured:
518A2 melanoma cells = assay: Influence on the cell cycle (PI flow cytometry); type: cell-based, human; settings: 518A2 cells, 24 h, IC50 concentrations (5: approximately twice its IC50)
Description: The complexes were investigated for their effect on the cell cycle. Cells were seeded in 6-well plates (Sarstedt) with 3 mL per well and a cell density of 0.05 × 10^6 cells per mL and incubated for 24 h. […] The supernatant of each sample was transferred into a separate tube on ice, the cell monolayer was rinsed once with PBS and the cells were harvested using trypsin, and also transferred into the tube. The cells were pelleted (4 °C, 150 × g, 5 min), re-suspended in 1 mL ice cold EtOH (70%) and stored for at least 1 h at 4 °C. Prior to propidium iodide (PI) staining, the cells were centrifuged (150×g, 5 min), the supernatant was discarded and the cells were layered with 1 mL PBS for 5 min. The cells were centrifuged again and the pellet was re-suspended in 200 µL of PI staining solution (50 µg/mL PI, 1% sodium citrate in PBS) containing 1 µL RNase (10 mg/mL stock solution) and incubated in dark for 30 min at 37 °C. The cell cycle distribution was assessed by flow cytometry (Beckmann Coulter). Means and SD were calculated from at least three independent experiments.

tubulin = assay: Tubulin polymerisation assay; type: biochemical; settings: in vitro, turbidity at 340 nm
Description: First, 2 × polymerization buffer was prepared, which consisted of 385 µL Brinkley renaturing buffer 80 (BRB 80), 100 µL glycerol, and 15 µL GTP (100 mM). 50 µL of freshly prepared 2 × polymerization buffer was added to µClear black well plates. Subsequently, 11.1 µL each of a tenfold substance pre-dilution in BRB80 was added. In addition, a combretastatin A-4 positive control was prepared analogously. After rapid addition of 50 µL of tubulin per well, the measurement was started on the plate reader at 340 nm. The plate reader measured at 20 s intervals for at least 120 min until the measurement plateau was reached. For evaluation, OD 340 nm was plotted versus time.

[1] = system: mdr KB-V1^Vbl cervix carcinoma cells; assay: MTT cell viability assay, KB-V1 (with and without verapamil); type: cell-based, human; settings: 72 h, without verapamil
Description: (§1) All complexes stable in solution were investigated for their anti-proliferative effect on nine human cancer cell lines, using the MTT-based cell viability assay. Cells were seeded in 96-well microtiter plates (Sarstedt) with a cell density of 0.05 × 10^6 cells per ml and 100 µL per well and incubated for 24 h. A dilution series of test compounds was added to the wells, ranging in twelve steps from 100 µM to 5 nM. As a control, equal amounts of DMSO were added. Treated cells were further incubated for 72 h. Then, 12.5 µL per well of MTT solution (0.05% in phosphate-buffered saline (PBS)) was added, followed by another 2 h of incubation. The plates were centrifuged, the medium was discarded and 25 µL per well of SDS solution in DMSO (10% SDS, 0.6% AcOH in DMSO) was added to dissolve the formazan. The plates were incubated for a further hour. Absorbances at 570 nm and 630 nm were measured using a plate reader (Tecan). Background absorbance (630 nm) was subtracted from the formazan signal (570 nm). The resulting absorbance was directly proportional to the amount of viable cells. The control was normalized to 100% viable cells and viability of cells treated with test compounds was calculated accordingly. IC50 values were calculated based on a sigmoidal fit model using GraphPad Prism. Means and SD were calculated from at least four independent experiments.

[2] = system: MCF-7 mamma carcinoma cells; assay: MTT cell viability assay, MCF-7; type: cell-based, human
Description: as §1

[3] = system: thioredoxin reductase (TrxR); assay: Inhibition of TrxR activity in cell lysates; type: biochemical, human; settings: lysates of 518A2 melanoma cells
Description: For the measurement of TrxR activity, the TrxR Colorimetric Assay Kit (Cayman Chemicals) was used according to manufacturer’s instructions. 1 × 10^8 518A2 melanoma cells were harvested using a cell scraper, homogenized in 5 mL of cold lysis buffer (50 mM K3PO4, 1 mM EDTA, pH 7.4) on ice and centrifuged for 15 min (4 °C, 10,000×g). The protein concentration of the supernatant was determined via Nanodrop. Then, 10 µL Protease Inhibitor Cocktail Plus (Carl Roth) was added to 1 mL of the cell lysate, which was either used for the assay right away or stored at − 80 °C. Prior to use, the assay buffer was warmed to room temperature and the cell lysate, NADPH (Nicotinamide adenine dinucleotide phosphate), ATM (aurothiomalate) and rat liver TrxR enzyme were thawed and kept on ice After determination of the amount of cell lysate for optimum TrxR activity, alle components were pipetted into the wells of a clear 96-well plate and the enzymatic reactions were initiated by addition of NADPH and 5,5′-dithiobis-(2-nitrobenzoic acid (DTNB). Then, the absorbance at 405 nm was measured once every minute using a plate reader (Tecan) at least ten time points. The TrxR activity was measured in the presence and absence of ATM. The difference between the two results renders the DTNB reduction due to TrxR activity. By plotting the average absorbance values as a function of time, the slope of the linear portion of the curve was obtained, and the change of absorbance (ΔA405) per minute could be determined. The values were corrected for unspecific DTNB reduction and the TrxR activity was calculated using the following formula: TrxR activity [µmol/min/mL] = [corrected ΔA/min (sample)/7.92 mM^−1] × [0.2 mL/0.02 mL] × sample dilution. The assay was conducted at 22 °C. All experiments were performed in triplicate and the solvent-treated negative controls were set to 100%.

[4] = system: HeLa cervix carcinoma cells; assay: MTT cell viability assay, HeLa; type: cell-based, human; settings: 72 h
Description: as §1

[5] = system: caspase 3/7 in 518A2 melanoma cells; assay: Caspase 3/7 activation; type: cell-based, human; settings: 518A2 cells, 10 µM, 6 h
Description: The assay was conducted, following manufacturer’s instructions using the Cell Meter Caspase 3/7 activity apoptosis assay kit (AAT Bioquest). Briefly, 518A2 melanoma cells were seeded in 96-well flat black microtiter plates with a density of 0.22 × 10^6 cells per mL and 90 µL per well. After 24 h of incubation, 10 µL per well of tenfold diluted test compounds was added, and the cells were incubated for a further 6 h. Subsequently, 100 µL per well of Caspase 3/7 substrate working solution was added and incubated for 1 h in the dark at room temperature. The fluorescence was measured using a micro-plate reader (Tecan) at ex/em = 490/525 nm.

[6] = system: mdr MCF-7^Topo mamma carcinoma cells; assay: MTT cell viability assay, MCF-7Topo; type: cell-based, human; settings: 72 h
Description: as §1

Structure (SMILES)	Effect on the cell cycle (518A2 melanoma cells)	Inhibition of tubulin polymerization (tubulin)	IC50 ([1]; Homo sapiens, KB-V1/Vbl)	IC50 ([2]; Homo sapiens, MCF7, 72 h)	Inhibition of TrxR activity [3]	IC50 ([4]; Homo sapiens, HeLa)	Caspase 3/7 activity [5]	IC50 ([6]; Homo sapiens, MCF7/Topo)	IC50 [1]	IC50 ([2]; 72 h, read-out: IC50 MCF7)	IC50 ([6]; read-out: IC50 MCF7^Topo)	IC50 [4]
Sc1ncnc2nc[nH]c12 [6-MP, 6-Mercaptopurine, reference compound]	accumulated in G1-phase	inhibited tubulin polymerization	1600 ± 100 nM	3700 ± 260 nM	inhibited TrxR	1400 ± 100 nM	increased caspase activity levels	6400 ± 460 nM	–	–	–	–
Nc1nc2nc[nH]c2c(=S)[nH]1 [6-TG, 6-thioguanine, reference compound]	accumulated in G1-phase	inhibited tubulin polymerization	500 ± 50 nM	980 ± 80 nM	inhibited TrxR	190 ± 10 nM	increased caspase activity levels	900 ± 90 nM	–	–	–	–
CC(=O)OC[C@H]1O[C@@H]([S-])[C@H](OC(C)=O)[C@@H](OC(C)=O)[C@@H]1OC(C)=O.CCP(CC)CC.[Au+] [Auranofin, auranofin]	arrested mainly in S-phase	microtubule-destabilizing agent	–	–	inhibited TrxR	–	increased caspase activity levels	–	1900 ± 70 nM	2200 ± 220 nM	4700 ± 430 nM	–
OC[C@H]1O[C@@H](n2cnc3c([S][Au][PH](c4ccccc4)(c4ccccc4)c4ccccc4)ncnc32)[C@H](O)[C@@H]1O [Complex 5, (1,7-Dihydro-6H-purine-9-β-D-ribofuranosyl-6-thiolato) (triphenylphosphane) gold(I)]	both a G1-phase arrest and an S-phase arrest	merely slight inhibition of tubulin polymerization	–	–	inhibited TrxR even more strongly than 6-MP, 6-TG and auranofin	–	increased caspase activity levels	–	–	2400 ± 220 nM	1700 ± 140 nM	190 ± 10 nM
Nc1nc([S][Au][PH](c2ccccc2)(c2ccccc2)c2ccccc2)c2ncn([C@@H]3O[C@H](CO)[C@@H](O)[C@H]3O)c2n1 [Complex 6, (2-Amino-1,7-dihydro-6H-purine-9-β-D-ribofuranosyl-6-thiolato) (triphenylphosphane) gold(I)]	–	merely slight inhibition of tubulin polymerization	–	–	inhibited TrxR even more strongly than 6-MP, 6-TG and auranofin	–	even exceeded the effects of the three controls	–	910 ± 90 nM	5800 ± 570 nM	3200 ± 290 nM	2400 ± 140 nM
